Drawing on ChEMBL document CHEMBL1140774, “Sterol C24-methyltransferase: mechanistic studies of the C-methylation reaction with 24-fluorocycloartenol” (Bioorg Med Chem Lett, 2008), this text covers Km and kcat for one compound.

The test system of the test is Glycine max. Briefly: Activity of soybean recombinant SMT1.

Take `CC(C)=CCC[C@@H](C)[C@H]1CC[C@@]2(C)[C@@H]3CC[C@H]4C(C)(C)[C@@H](O)CC[C@@]45C[C@@]35CC[C@]12C`: the Km is 30 µM and the kcat amounted to 0.01 s⁻¹.
